Data on 43 molecules can be found in patent US11414416B1, “Compounds and uses thereof” (Foghorn Therapeutics Inc., priority 2019, dated 2022).

Like-named read-outs stand apart in the source and are kept apart here.

The experiment deals with Nanoluciferase-BRD9 fusion protein (Homo sapiens (Human), UniProt Q9H8M2). The experiment is described as follows: SYO1 BRD9 NanoLuc degradation assay. In kind it is cell-based. The note with it: SYO-1 cells expressing 3×FLAG-NLuc-BRD9, 6 hours; for DC50: read-out: SYO1 BRD9-NanoLuc degradation IC50. Here is the method:
Procedure: A stable SYO-1 cell line expressing 3×FLAG-NLuc-BRD9 was generated. On day 0 cells were seeded in 30 μL media into each well of 384-well cell culture plates. The seeding density was 8000 cells/well. […] Subsequently plates were incubated for 6 hours in a standard tissue culture incubator and equilibrated at room temperature for 15 minutes. Nanoluciferase activity was measured by adding 15 μL of freshly prepared Nano-Glo Luciferase Assay Reagent (Promega N1130), shaking the plates for 10 minutes and reading the bioluminescence using an EnVision reader.
DMSO treated cells are employed as High Control (HC) and 1 μM of a known BRD9 degrader standard treated cells are employed as Low Control (LC).

Sequence of Nanoluciferase-BRD9 fusion protein (Q9H8M2 whole entry, the tested form may be a part): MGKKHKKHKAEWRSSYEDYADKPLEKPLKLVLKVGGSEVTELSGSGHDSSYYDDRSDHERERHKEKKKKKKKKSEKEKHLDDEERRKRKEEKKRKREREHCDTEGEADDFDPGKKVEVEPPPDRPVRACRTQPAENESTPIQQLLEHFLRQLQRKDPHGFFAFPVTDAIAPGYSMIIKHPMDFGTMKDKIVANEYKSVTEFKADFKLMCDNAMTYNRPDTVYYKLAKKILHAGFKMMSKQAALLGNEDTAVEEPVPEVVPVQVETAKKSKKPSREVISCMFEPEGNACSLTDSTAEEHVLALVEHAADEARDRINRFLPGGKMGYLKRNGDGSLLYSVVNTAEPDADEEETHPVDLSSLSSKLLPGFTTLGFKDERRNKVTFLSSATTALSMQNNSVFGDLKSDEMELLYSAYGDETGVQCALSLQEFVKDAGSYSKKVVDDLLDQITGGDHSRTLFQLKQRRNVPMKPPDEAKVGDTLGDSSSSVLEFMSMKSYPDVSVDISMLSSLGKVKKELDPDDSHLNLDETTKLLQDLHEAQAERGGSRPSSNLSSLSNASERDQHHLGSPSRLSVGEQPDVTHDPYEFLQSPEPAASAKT

In the case of `COc1cc(-c2cc(C(F)F)c(=O)n(C)c2)cc(OC)c1C1CN(c2ccc3c(c2)C(=O)N(C2CCC(=O)NC2=O)C3)C1` (stereo not shown) [Compound D455], the DC50 (Table 5C) is below 10 nM. Consider `COc1cc(-c2cn(C)c(=O)c3cnccc23)cc(OC)c1CN1CC(CC(=O)N2CC3(CCN(c4ccc5c(c4)C(=O)N(C4CCC(=O)NC4=O)C5=O)C3)C2)C1` (stereo not shown) [Compound D181], for which, under “Table 5B”, the DC50 lay in the range of 100 to 1000 nM. Still for that read-out and setting: for `COc1cc(-c2cn(C)c(=O)c3cnccc23)cc(OC)c1CN(C)CCn1cc(CN2CC(Oc3ccc4c(c3)C(=O)N(C3CCC(=O)NC3=O)C4=O)C2)nn1` (stereo not shown) [Compound D276] the value was 10 to 100 nM. In the case of `COc1cc(-c2cc(C)c(=O)n(C)c2)cc(OC)c1CN1CC(/C=C/c2ccc3c(c2)C(=O)N(C2CCC(=O)NC2=O)C3)C1` (stereo not shown) [Compound D457], the DC50 (Table 5C) is below 10 nM. Same read-out and setting: for `COc1cc(-c2cn(C)c(=O)c3[nH]cnc23)cc(OC)c1CN1CCC2(CC1)CN(c1ccc3c(c1)C(=O)N(C1CCC(=O)NC1=O)C3)C2` (stereo not shown) [Compound D434] the value was below 10 nM.

In the case of `COc1cc(-c2cn(C)c(=O)c3cnccc23)cc(OC)c1CN(C)C(=O)CCCCN1CCCC2(CC(Oc3ccc4c(c3)C(=O)N([C@H]3CCC(=O)NC3=O)C4=O)C2)C1` (stereo partly shown) [Compound D262], the DC50 (Table 5B) was below 10 nM. Regarding `COc1cc(-c2cn(C)c(=O)c3cnccc23)cc(OC)c1CN(C)C(=O)CCCCN1CC2(CCN(c3ccc4c(c3)C(=O)N(C3CCC(=O)NC3=O)C4=O)CC2)C1` (stereo not shown) [Compound D201], the DC50 (Table 5B) was below 10 nM. Still for that read-out and setting: for `COc1cc(-c2cn(C)c(=O)c3cnccc23)cc(OC)c1CN(C)CCCCN1CCC2(CC1)CN(c1ccc3c(c1)C(=O)N(C1CCC(=O)NC1=O)C3=O)C2` (stereo not shown) [Compound D222] the value was below 10 nM; for `COc1cc(-c2cc(C)c(=O)n(C)c2)cc(OC)c1CN1CCC2(C1)CN(c1ccc3c(c1)C(=O)N(C1CCC(=O)NC1=O)C3=O)C2` (stereo not shown) [Compound D337], below 10 nM.

Regarding `COc1cc(-c2cn(C)c(=O)c3cnccc23)cc(OC)c1CN(C)C(=O)CCCCNC1CC12CCN(c1ccc3c(c1)C(=O)N(C1CCC(=O)NC1=O)C3=O)C2` (stereo not shown) [Compound D258], under “Table 5B”, the DC50 was below 10 nM. As for `COc1cc(-c2cn(C)c(=O)c3cn(C)nc23)cc(OC)c1CN1CCC2(CC1)CN(c1ccc3c(c1)C(=O)N(C1CCC(=O)NC1=O)C3=O)C2` (stereo not shown) [Compound D415], under “Table 5C”, the DC50 was below 10 nM. On to `COc1cc(-c2cn(C)c(=O)c3cnccc23)cc(OC)c1CN1CC(CC(=O)N2CC3(CCC(Oc4ccc5c(c4)C(=O)N(C4CCC(=O)NC4=O)C5=O)C3)C2)C1` (stereo not shown) [Compound D183], for which the DC50 (Table 5B) was 100 to 1000 nM. As to `Cc1cc(-c2ccc(CN3CCN(c4ccc5c(c4)C(=O)N(C4CCC(=O)NC4=O)C5)CC3)cc2)cn(C)c1=O` (stereo not shown) [Compound D460], for the setting “Table 5C”, the DC50 is below 10 nM. Regarding `COc1cc(-c2cc(C)c(=O)n(C)c2)cc(OC)c1CN1CCC2C(C1)CN2c1ccc2c(c1)C(=O)N(C1CCC(=O)NC1=O)C2=O` (stereo not shown) [Compound D338], under “Table 5B”, the DC50 is below 10 nM. On to `COc1cc(-c2cn(C)c(=O)c3cnccc23)cc(OC)c1CN(C)CCOCCn1cc(COc2ccc3c(c2)C(=O)N(C2CCC(=O)NC2=O)C3=O)nn1` (stereo not shown) [Compound D288], for which the DC50 (Table 5B) was below 10 nM.

As to `COc1cc(-c2cn(C)c(=O)c3cnccc23)cc(OC)c1CN1CC2(CC(CCOc3ccc4c(c3)C(=O)N(C3CCC(=O)NC3=O)C4=O)C2)C1` (stereo not shown) [Compound D48, 5-(2-(2-(2,6-dimethoxy-4-(2-methyl-1-oxo-1,2-dihydro-2,7-naphthyridin-4-yl)benzyl)-2-azaspiro[3.3]heptan-6-yl)ethoxy)-2-(2,6-dioxopiperidin-3-yl)isoindoline-1,3-dione formic acid], the DC50 (Table 5A) lay in the range of 10 to 100 nM. Turning to `COc1cc(-c2cn(C)c(=O)c3cnccc23)cc(OC)c1CN1CC(CC(=O)N2CCC3(CC(Oc4ccc5c(c4)C(=O)N([C@H]4CCC(=O)NC4=O)C5=O)C3)C2)C1` (stereo partly shown) [Compound D267], the DC50 (Table 5B) is 10 to 100 nM. Same read-out and setting: for `COc1cc(-c2cn(C)c(=O)c3cnccc23)cc(OC)c1CN(C)C(=O)CCCCN1CCC2C1CN2c1ccc2c(c1)C(=O)N(C1CCC(=O)NC1=O)C2=O` (stereo not shown) [Compound D205] the value was below 10 nM. For the molecule `COc1cc(-c2cn(C)c(=O)c3cnccc23)cc(OC)c1CN1CCC2(CC1)CN(c1cncc(C(=O)NC3CCC(=O)NC3=O)n1)C2` (stereo not shown) [Compound D473], the DC50 (Table 5C) is above 1000 nM. Regarding `COc1cc(-c2cn(C)c(=O)c3cnncc23)cc(OC)c1CN1CCC(CN2CCC3(CC2)CC(Oc2ccc4c(c2)C(=O)N(C2CCC(=O)NC2=O)C4)C3)CC1` (stereo not shown) [Compound D368], the DC50 (Table 5B) is below 10 nM. Same read-out and setting: for `COc1cc(-c2cn(C)c(=O)c3cnccc23)cc(OC)c1CN(C)CCOCCn1cc(COCCOc2ccc3c(c2)C(=O)N(C2CCC(=O)NC2=O)C3=O)nn1` (stereo not shown) [Compound D293] the value was 10 to 100 nM; for `COc1cc(-c2cn(C)c(=O)c3cnccc23)cc(OC)c1CN1CCC(n2cc([C@@H](C)Oc3ccc4c(c3)C(=O)N(C3CCC(=O)NC3=O)C4=O)nn2)CC1` (stereo partly shown) [Compound D319], below 10 nM; for `COc1cc(-c2cn(C)c(=O)c3cnccc23)cc(OC)c1CN1CCC(c2nc(COc3ccc4c(c3)C(=O)N(C3CCC(=O)NC3=O)C4=O)co2)CC1` (stereo not shown) [Compound D325], below 10 nM. For the molecule `COc1cc(-c2cn(C)c(=O)c3cnccc23)cc(OC)c1CN1CC2(CCN(C(=O)CCOCCOc3cccc4c3C(=O)N(C3CCC(=O)NC3=O)C4=O)C2)C1` (stereo not shown) [Compound D90], the IC50 (Table 5A) is 10 to 100 nM. As for `COc1cc(-c2cn(C)c(=O)c3nccn23)cc(OC)c1CN1CCC2(CC1)CN(c1ccc3c(c1)C(=O)N(C1CCC(=O)NC1=O)C3)C2` (stereo not shown) [Compound D447], for the setting “Table 5C”, the DC50 is 100 to 1000 nM. Consider `COc1cc(-c2cn(C)c(=O)c3cnccc23)cc(OC)c1CN1CCC(n2cc(COC3CCN(c4ccc5c(c4)C(=O)N(C4CCC(=O)NC4=O)C5=O)CC3)nn2)CC1` (stereo not shown) [Compound D281], for which the DC50 (Table 5B) fell in the range of 10 to 100 nM. The same measure, in the same setting: for `COc1cc(-c2cn(C)c(=O)c3cnccc23)cc(OC)c1CN1CCC2C(C1)CN2CC#Cc1ccc2c(c1)C(=O)N(C1CCC(=O)NC1=O)C2=O` (stereo not shown) [Compound D236] the value was below 10 nM. Still for that read-out and setting: for `COc1cc(-c2cc(C)c(=O)n(C)c2C)cc(OC)c1CN1CC(CN2CCC3(CC2)CN(c2ccc4c(c2)C(=O)N(C2CCC(=O)NC2=O)C4=O)C3)C1` (stereo not shown) [Compound D346] the value was below 10 nM. For the molecule `COc1cc(-c2cn(C)c(=O)c3cnccc23)cc(OC)c1CN1CCC2C(C1)CN2CCCC#Cc1ccc2c(c1)C(=O)N(C1CCC(=O)NC1=O)C2=O` (stereo not shown) [Compound D310], the DC50 (Table 5B) is below 10 nM. On the same count and under the same terms, for `COc1cc(-c2cn(C)c(=O)c3cnccc23)cc(OC)c1CN(C)C(=O)CCCCN1CC2(CC(Oc3ccc4c(c3)C(=O)N(C3CCC(=O)NC3=O)C4=O)C2)C1` (stereo not shown) [Compound D230] the value was below 10 nM. The same measure, in the same setting: for `COc1cc(-c2cn(C)c(=O)c3cnccc23)cc(OC)c1CN1CCC2(CC1)CN(CC#Cc1ccc3c(c1)C(=O)N(C1CCC(=O)NC1=O)C3=O)C2` (stereo not shown) [Compound D235] the value was below 10 nM.

Take `COc1cc(-c2cc(C)c(=O)n(C)c2)cc(OC)c1CN1CC(C#Cc2ccc3c(c2)C(=O)N(C2CCC(=O)NC2=O)C3)C1C` (stereo not shown) [Compound D453]: the IC50 (Table 5C) was below 10 nM. In the case of `COc1cc(-c2cn(C)c(=O)c3cnccc23)cc(OC)c1CN(C)CCOCCn1cc(CN2CC(Oc3ccc4c(c3)C(=O)N(C3CCC(=O)NC3=O)C4=O)C2)nn1` (stereo not shown) [Compound D294], where the note is “Table 5B”, the DC50 lay in the range of 100 to 1000 nM. On the same count and under the same terms, for `COc1cc(-c2cn(C)c(=O)c(C#N)c2C)cc(OC)c1CN1CC(CN2CCC3(CC2)CN(c2ccc4c(c2)C(=O)N(C2CCC(=O)NC2=O)C4=O)C3)C1` (stereo not shown) [Compound D351] the value was above 1000 nM; for `COc1cc(-c2cn(C)c(=O)c3cnccc23)cc(OC)c1CN1CCC(n2cc(COc3ccc4c(c3)C(=O)N(C3CCC(=O)NC3=O)C4=O)cn2)CC1` (stereo not shown) [Compound D324], below 10 nM. Turning to `COc1cc(-c2cn(C)c(=O)c3cnccc23)cc(OC)c1CN(C)CCCn1cc(COCCOc2ccc3c(c2)C(=O)N(C2CCC(=O)NC2=O)C3=O)nn1` (stereo not shown) [Compound D284], the DC50 (Table 5B) lay in the range of 10 to 100 nM. With `COc1cc(-c2cn(C)c(=O)c3cnccc23)cc(OC)c1CN1CC2(CCN(C(=O)CCC#Cc3ccc4c(c3)C(=O)N(C3CCC(=O)NC3=O)C4=O)C2)C1` (stereo not shown) [Compound D218], the DC50 (Table 5B) was below 10 nM. Still for that read-out and setting: for `COc1cc(-c2cn(C)c(=O)c3cnccc23)cc(OC)c1CN(C)CC(=O)NCCCCCOc1ccc(-c2ccc3c(c2)C(=O)N(C2CCC(=O)NC2=O)C3=O)cc1` (stereo not shown) [DD8] the value was below 10 nM; for `CNC(=O)NCc1cc(-c2cc(OC)c(CN3CC(CN4CCC5(CC4)CN(c4ccc6c(c4)C(=O)N(C4CCC(=O)NC4=O)C6)C5)C3)c(OC)c2)cn(C)c1=O` (stereo not shown) [Compound D364], 100 to 1000 nM. Same read-out and setting: for `COc1cc(-c2cn(C)c(=O)cc2C)cc(OC)c1CN1CC(CN2CCC3(CC2)CN(c2ccc4c(c2)C(=O)N(C2CCC(=O)NC2=O)C4=O)C3)C1` (stereo not shown) [Compound D349] the value was below 10 nM. The same measure, in the same setting: for `COc1cc(-c2cn(C)c(=O)c3ccccc23)cc(OC)c1CN1CC(CN2CCC3(CC2)CN(c2ccc4c(c2)CN(C2CCC(=O)NC2=O)C4=O)C3)C1` (stereo not shown) [Compound D360] the value was below 10 nM. Take `C=CCn1cc(-c2cc(OC)c(CN3CCC4(C3)CN(c3ccc5c(c3)C(=O)N(C3CCC(=O)NC3=O)C5)C4)c(OC)c2)cc(C(F)F)c1=O` (stereo not shown) [Compound D404]: where the note is “Table 5C”, the DC50 is below 10 nM. Still for that read-out and setting: for `COc1cc(-c2cn(C)c(=O)c3cn(C)nc23)cc(OC)c1CN1CCC2(CC1)CN(c1ccc3c(c1)C(=O)N(C1CCC(=O)NC1=O)C3)C2` (stereo not shown) [Compound D416] the value was below 10 nM.
